Source: PubChem BioAssay (NCI)
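Five compound concentrations were applied to cells in 96-well plates for 48 hours; endpoints were derived by simple linear interpolation of the resulting dose-response curve. Abbreviation: GI50, concentration required for 50% inhibition of growth. At the TGI there is no net growth.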

Columns and labels:
Test in all cases: DTP human tumour cell line panel, 48 h
EKVX NSCLC = test system: EKVX NSCLC
A498 renal = test system: A498 renal
K-562 leukemia = test system: K-562 leukemia
SK-MEL-2 melanoma = test system: SK-MEL-2 melanoma
T-47D breast = test system: T-47D breast
LOX IMVI melanoma = test system: LOX IMVI melanoma
HL-60(TB) leukemia = test system: HL-60(TB) leukemia
A549 NSCLC = test system: A549 NSCLC
U251 CNS = test system: U251 CNS
HCT-116 colon = test system: HCT-116 colon
NCI/ADR-RES ovarian = test system: NCI/ADR-RES ovarian
IGROV1 ovarian = test system: IGROV1 ovarian
HOP-62 NSCLC = test system: HOP-62 NSCLC
OVCAR-5 ovarian = test system: OVCAR-5 ovarian
MOLT-4 leukemia = test system: MOLT-4 leukemia
SK-MEL-5 melanoma = test system: SK-MEL-5 melanoma
KM12 colon = test system: KM12 colon
RPMI-8226 leukemia = test system: RPMI-8226 leukemia
NCI-H226 lung = test system: NCI-H226 lung
MDA-MB-435 = test system: MDA-MB-435
SR leukemia = test system: SR leukemia
CAKI-1 renal = test system: CAKI-1 renal
SK-MEL-28 melanoma = test system: SK-MEL-28 melanoma
TK-10 renal = test system: TK-10 renal
NCI-H522 lung = test system: NCI-H522 lung
SNB-75 CNS = test system: SNB-75 CNS
HCT-15 colon = test system: HCT-15 colon
MALME-3M melanoma = test system: MALME-3M melanoma
OVCAR-3 ovarian = test system: OVCAR-3 ovarian
SK-OV-3 ovarian = test system: SK-OV-3 ovarian
PC-3 prostate = test system: PC-3 prostate
HS 578T breast = test system: HS 578T breast
BT-549 breast = test system: BT-549 breast
RXF 393 renal = test system: RXF 393 renal
786-0 renal = test system: 786-0 renal
OVCAR-4 ovarian = test system: OVCAR-4 ovarian
HOP-92 NSCLC = test system: HOP-92 NSCLC
UACC-257 melanoma = test system: UACC-257 melanoma
OVCAR-8 ovarian = test system: OVCAR-8 ovarian
MDA-MB-231 breast = test system: MDA-MB-231 breast
DU-145 prostate = test system: DU-145 prostate
HT29 colon = test system: HT29 colon
HCC-2998 colon = test system: HCC-2998 colon
UO-31 renal = test system: UO-31 renal
CCRF-CEM leukemia = test system: CCRF-CEM leukemia
SF-268 CNS = test system: SF-268 CNS
SF-295 CNS = test system: SF-295 CNS
ACHN renal = test system: ACHN renal
UACC-62 melanoma = test system: UACC-62 melanoma
SNB-19 CNS = test system: SNB-19 CNS
SW-620 colon = test system: SW-620 colon
NCI-H23 lung = test system: NCI-H23 lung
COLO 205 colon = test system: COLO 205 colon
NCI-H460 lung = test system: NCI-H460 lung
M14 melanoma = test system: M14 melanoma
SN12C renal = test system: SN12C renal
SF-539 CNS = test system: SF-539 CNS
MCF7 breast = test system: MCF7 breast

## CON(C(=O)OC(C)(C)C)c1ccccc1
EKVX NSCLC
  TGI: > 100 µM
A498 renal
  TGI: > 100 µM
K-562 leukemia
  TGI: > 100 µM
SK-MEL-2 melanoma
  TGI: > 100 µM
T-47D breast
  TGI: > 100 µM
LOX IMVI melanoma
  TGI: > 100 µM
HL-60(TB) leukemia
  TGI: > 100 µM
A549 NSCLC
  TGI: > 100 µM
U251 CNS
  TGI: > 100 µM
HCT-116 colon
  TGI: > 100 µM
NCI/ADR-RES ovarian
  TGI: > 100 µM
IGROV1 ovarian
  TGI: > 100 µM
HOP-62 NSCLC
  TGI: > 100 µM
OVCAR-5 ovarian
  TGI: > 100 µM
MOLT-4 leukemia
  TGI: > 100 µM
SK-MEL-5 melanoma
  TGI: > 100 µM
KM12 colon
  TGI: > 100 µM
RPMI-8226 leukemia
  TGI: > 100 µM
NCI-H226 lung
  TGI: > 100 µM
MDA-MB-435
  TGI: > 100 µM
SR leukemia
  TGI: > 100 µM
CAKI-1 renal
  TGI: > 100 µM
SK-MEL-28 melanoma
  TGI: > 100 µM
TK-10 renal
  TGI: > 100 µM
NCI-H522 lung
  TGI: > 100 µM
SNB-75 CNS
  TGI: > 100 µM
HCT-15 colon
  TGI: > 100 µM
MALME-3M melanoma
  TGI: > 100 µM
OVCAR-3 ovarian
  TGI: > 100 µM
SK-OV-3 ovarian
  TGI: > 100 µM
PC-3 prostate
  TGI: > 100 µM
HS 578T breast
  TGI: > 100 µM
BT-549 breast
  TGI: > 100 µM
RXF 393 renal
  TGI: > 100 µM
786-0 renal
  TGI: > 100 µM
OVCAR-4 ovarian
  TGI: > 100 µM
HOP-92 NSCLC
  TGI: > 100 µM
UACC-257 melanoma
  TGI: > 100 µM
OVCAR-8 ovarian
  TGI: > 100 µM
MDA-MB-231 breast
  TGI: > 100 µM
DU-145 prostate
  TGI: > 100 µM
HT29 colon
  TGI: > 100 µM
HCC-2998 colon
  TGI: > 100 µM
UO-31 renal
  TGI: > 100 µM
CCRF-CEM leukemia
  TGI: > 100 µM
SF-268 CNS
  TGI: > 100 µM
SF-295 CNS
  TGI: > 100 µM
ACHN renal
  TGI: > 100 µM
UACC-62 melanoma
  TGI: > 100 µM
SNB-19 CNS
  TGI: > 100 µM
SW-620 colon
  TGI: > 100 µM
NCI-H23 lung
  TGI: > 100 µM
COLO 205 colon
  TGI: > 100 µM
NCI-H460 lung
  TGI: > 100 µM
M14 melanoma
  TGI: > 100 µM

## CN(C)CCOc1ccc2[nH]c(C(=O)N3CC(CCl)c4ccc(N)cc43)cc2c1 (stereo unspecified)
EKVX NSCLC
  TGI: 5.92 µM
K-562 leukemia
  TGI: > 100 µM
T-47D breast
  TGI: > 100 µM
SN12C renal
  TGI: > 22.3 µM
A549 NSCLC
  TGI: > 40.3 µM
HCT-116 colon
  TGI: 12.9 µM
IGROV1 ovarian
  TGI: > 67.6 µM
HOP-62 NSCLC
  TGI: 0.69 µM
OVCAR-5 ovarian
  TGI: 18.2 µM
MOLT-4 leukemia
  TGI: 0.0565 µM
SK-MEL-5 melanoma
  TGI: 0.261 µM
KM12 colon
  TGI: 0.294 µM
RPMI-8226 leukemia
  TGI: 1.14 µM
SR leukemia
  TGI: > 100 µM
CAKI-1 renal
  TGI: > 100 µM
SK-MEL-28 melanoma
  TGI: 3.21 µM
NCI-H522 lung
  TGI: 0.0683 µM
HCT-15 colon
  TGI: 20.7 µM
OVCAR-3 ovarian
  TGI: 0.653 µM
SK-OV-3 ovarian
  TGI: > 100 µM
BT-549 breast
  TGI: 0.612 µM
786-0 renal
  TGI: 5.48 µM
OVCAR-4 ovarian
  TGI: 0.46 µM
HOP-92 NSCLC
  TGI: 4.18 µM
OVCAR-8 ovarian
  TGI: > 35.8 µM
HCC-2998 colon
  TGI: 0.823 µM
UO-31 renal
  TGI: > 40.7 µM
CCRF-CEM leukemia
  TGI: 0.975 µM
SF-539 CNS
  TGI: > 100 µM
SF-268 CNS
  TGI: 1.01 µM
ACHN renal
  TGI: 1.07 µM
SNB-19 CNS
  TGI: 21.8 µM
SW-620 colon
  TGI: > 100 µM
NCI-H23 lung
  TGI: 0.341 µM
M14 melanoma
  TGI: 1.39 µM

## Cc1ccnc(NC(c2ccccc2)c2ccc3cccnc3c2O)c1 (stereo unspecified)
EKVX NSCLC
  GI50: 2.64 µM
  TGI: 15.8 µM
A498 renal
  GI50: 2.08 µM
  TGI: 9.55 µM
K-562 leukemia
  GI50: 3.27 µM
  TGI: > 100 µM
T-47D breast
  GI50: 4.22 µM
  TGI: 35.1 µM
LOX IMVI melanoma
  GI50: 3.29 µM
  TGI: 34.2 µM
HL-60(TB) leukemia
  GI50: 1.7 µM
  TGI: 5.4 µM
SN12C renal
  GI50: 5.27 µM
  TGI: > 100 µM
A549 NSCLC
  GI50: 3.99 µM
  TGI: 45.1 µM
U251 CNS
  GI50: 2.85 µM
  TGI: 12.7 µM
HCT-116 colon
  GI50: 2.94 µM
  TGI: 14.5 µM
NCI/ADR-RES ovarian
  GI50: 2.47 µM
  TGI: 14.9 µM
IGROV1 ovarian
  GI50: 2.33 µM
  TGI: 23.3 µM
HOP-62 NSCLC
  GI50: 4.41 µM
  TGI: 96.2 µM
OVCAR-5 ovarian
  GI50: 8.86 µM
  TGI: > 100 µM
MOLT-4 leukemia
  GI50: 2.53 µM
  TGI: > 100 µM
SK-MEL-5 melanoma
  GI50: 4.31 µM
  TGI: 15.6 µM
KM12 colon
  GI50: 4.15 µM
  TGI: > 100 µM
RPMI-8226 leukemia
  GI50: 8.19 µM
  TGI: > 100 µM
NCI-H226 lung
  GI50: 4.48 µM
  TGI: 44.6 µM
MDA-MB-435
  GI50: 4.18 µM
  TGI: 30.5 µM
SR leukemia
  GI50: 2.7 µM
  TGI: > 100 µM
CAKI-1 renal
  GI50: 1.68 µM
  TGI: 7.17 µM
SK-MEL-28 melanoma
  GI50: 13.8 µM
  TGI: > 100 µM
SNB-75 CNS
  GI50: 21.1 µM
  TGI: > 100 µM
HCT-15 colon
  GI50: 3.35 µM
  TGI: > 100 µM
MALME-3M melanoma
  GI50: 2.89 µM
  TGI: 34.9 µM
OVCAR-3 ovarian
  GI50: 2.79 µM
  TGI: 14 µM
MCF7 breast
  GI50: 5.18 µM
  TGI: 30.4 µM
SK-OV-3 ovarian
  GI50: 4.36 µM
  TGI: > 100 µM
PC-3 prostate
  GI50: 5.94 µM
  TGI: > 100 µM
HS 578T breast
  GI50: 3.21 µM
  TGI: 35.1 µM
RXF 393 renal
  GI50: 7.93 µM
  TGI: > 100 µM
786-0 renal
  GI50: 2.93 µM
  TGI: 35.1 µM
OVCAR-4 ovarian
  GI50: 3.2 µM
  TGI: 27.1 µM
HOP-92 NSCLC
  GI50: 2.11 µM
  TGI: 8.95 µM
UACC-257 melanoma
  GI50: 2.62 µM
  TGI: 9.9 µM
OVCAR-8 ovarian
  GI50: 3.23 µM
  TGI: 16.3 µM
MDA-MB-231 breast
  GI50: 5.65 µM
  TGI: 97.1 µM
DU-145 prostate
  GI50: 4.9 µM
  TGI: > 100 µM
HCC-2998 colon
  GI50: 7.12 µM
  TGI: > 100 µM
UO-31 renal
  GI50: 1.3 µM
  TGI: 14.6 µM
CCRF-CEM leukemia
  GI50: 2.43 µM
  TGI: > 100 µM
SF-539 CNS
  GI50: 3.35 µM
  TGI: 19.2 µM
SF-268 CNS
  GI50: 2.93 µM
  TGI: 21.5 µM
SF-295 CNS
  GI50: 2.42 µM
  TGI: 16.3 µM
ACHN renal
  GI50: 3.46 µM
  TGI: > 100 µM
UACC-62 melanoma
  GI50: 4.42 µM
  TGI: 87.9 µM
SNB-19 CNS
  GI50: 6.28 µM
  TGI: > 100 µM
SW-620 colon
  GI50: 3.86 µM
  TGI: 15.6 µM
NCI-H23 lung
  GI50: 5.12 µM
  TGI: > 100 µM
COLO 205 colon
  GI50: 14.3 µM
  TGI: 73.4 µM
NCI-H460 lung
  GI50: 2.16 µM
  TGI: 6.34 µM
M14 melanoma
  GI50: 3.09 µM
  TGI: 29.2 µM
